Results taken from article PMC3340406, “Molecular and Functional Characterization of Novel Fructosyltransferases and Invertases from Agave tequilana” (PLoS ONE, 2012).

Experiments:
Assay type in all cases: biochemical
AtqCwinv-1 [1] = target: T1, AtqCwinv-1 (Agave tequilana, UniProt I1ZBQ2); assay: HPAEC-PAD, exohydrolase activity; conditions: 100 mM 1-kestose, 50 mM sodium acetate pH 4.3, 30 °C; 10 µg affinity purified protein
T1 construct: gene Cwinv1; mature region, signal peptide (24 aa) removed, His-tagged, secreted from Pichia pastoris X-33 (pPICZalphaA); full length 575 aa; about 75 kDa on gel
T1 sequence (I1ZBQ2 25-575): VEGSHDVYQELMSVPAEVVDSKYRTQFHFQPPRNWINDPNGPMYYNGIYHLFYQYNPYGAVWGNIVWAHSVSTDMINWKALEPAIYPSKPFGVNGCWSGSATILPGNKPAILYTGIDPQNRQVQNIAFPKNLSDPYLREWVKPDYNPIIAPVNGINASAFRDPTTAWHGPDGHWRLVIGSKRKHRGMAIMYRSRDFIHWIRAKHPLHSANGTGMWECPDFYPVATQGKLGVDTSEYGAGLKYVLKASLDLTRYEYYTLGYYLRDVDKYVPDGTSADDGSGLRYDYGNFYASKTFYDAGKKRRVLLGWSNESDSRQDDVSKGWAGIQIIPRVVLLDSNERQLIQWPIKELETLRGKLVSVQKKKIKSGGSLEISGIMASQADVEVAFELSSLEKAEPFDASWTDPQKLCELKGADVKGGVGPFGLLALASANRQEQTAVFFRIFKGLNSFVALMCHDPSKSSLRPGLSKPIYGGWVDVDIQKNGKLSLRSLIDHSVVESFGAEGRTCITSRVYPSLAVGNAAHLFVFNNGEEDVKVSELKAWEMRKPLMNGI

Atq6G-FFT-1 = target: T2, Atq6G-FFT-1 (Agave tequilana, UniProt I1ZBQ0); assay: HPAEC-PAD product analysis; conditions: 50 mM 1-kestose (stock contains some sucrose and nystose), 50 mM sodium acetate pH 5.5, 30 °C; 20 µg total protein extract
T2 construct: gene FFT1; mature region, signal peptide (34 aa) removed, His-tagged, secreted from Pichia pastoris X-33 (pPICZalphaA); full length 627 aa; about 80 kDa on gel
T2 sequence (I1ZBQ0 35-627): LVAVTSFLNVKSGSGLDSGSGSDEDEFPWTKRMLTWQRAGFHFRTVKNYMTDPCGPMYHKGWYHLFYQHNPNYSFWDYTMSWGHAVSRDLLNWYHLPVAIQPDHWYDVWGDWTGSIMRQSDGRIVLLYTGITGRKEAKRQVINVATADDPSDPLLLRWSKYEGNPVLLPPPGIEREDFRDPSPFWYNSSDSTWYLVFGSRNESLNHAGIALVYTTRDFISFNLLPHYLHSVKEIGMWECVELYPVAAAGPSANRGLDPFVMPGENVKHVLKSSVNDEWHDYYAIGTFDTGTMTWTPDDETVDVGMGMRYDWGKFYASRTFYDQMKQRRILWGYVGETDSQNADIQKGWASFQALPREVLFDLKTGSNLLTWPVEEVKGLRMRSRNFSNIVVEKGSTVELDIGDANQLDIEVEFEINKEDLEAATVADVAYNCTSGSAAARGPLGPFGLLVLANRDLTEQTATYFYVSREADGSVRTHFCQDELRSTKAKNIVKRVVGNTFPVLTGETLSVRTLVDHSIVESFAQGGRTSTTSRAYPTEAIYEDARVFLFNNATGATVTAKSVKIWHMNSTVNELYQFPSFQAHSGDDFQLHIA

AtqCwinv-1 [2] = target: T1, AtqCwinv-1; assay: TLC and HPAEC-PAD, sucrose hydrolysis; conditions: 100 mM sucrose, 50 mM sodium acetate pH 4.3, 30 °C; 10 µg affinity purified protein

Compound | HPAEC-PAD, exohydrolase activity (AtqCwinv-1 [1]) | HPAEC-PAD product analysis (Atq6G-FFT-1) | TLC and HPAEC-PAD, sucrose hydrolysis (AtqCwinv-1 [2])
OC[C@H]1O[C@@](CO)(OC[C@@]2(O[C@H]3O[C@H](CO)[C@@H](O)[C@H](O)[C@H]3O)O[C@H](CO)[C@@H](O)[C@@H]2O)[C@@H](O)[C@@H]1O [1-kestose] | some exohydrolytic activity occurred when sucrose was replaced by 1-kestose as substrate | 1-kestose was used as substrate no neokestose was produced but a tetrasaccharide 4c molecule | 
OC[C@H]1O[C@@](CO)(O[C@H]2O[C@H](CO)[C@@H](O)[C@H](O)[C@H]2O)[C@@H](O)[C@@H]1O [sucrose] |  |  | AtqCwinv-1 produced fructose and glucose when incubated with sucrose as the sole substrate
